A short description of data set [1]: Solubility in conventional battery solvents. It is filed as physicochemical. An excerpt: This was not to be expected, since it is known that many Cs salts having large, weakly coordinating anions are relatively poorly soluble in water (A. Nadjafi, Microchim. Acta 1973, 689-696).
The abbreviation BOB stands for bis-(oxalato)borate (C4O8B)^−, BMB for bis-(malonato)borate (C6H4O8B)^−, NMP for N-methylpyrrolidone, EC for ethylene carbonate, DMC for dimethyl carbonate, EMC for ethyl methyl carbonate and PC for propylene carbonate.

The conditions of data set [2]: cited from earlier work.
Data set [3] can be described thus: Cs content (FES) in filtered electrolyte solution after stirring with excess additive. Format: physicochemical. To be noted: stirred 24 h, membrane filtered. As to the method: In an Ar-filled glove box, 10 g of an 11 wt.-% LiBOB solution in ethylene carbonate/ethylmethyl carbonate (1:1, wt./wt.) was mixed with 0.32 g CsBOB and magnetically stirred for 24 h. The suspension was then filter-clarified by membrane filtration ([…] PTFE). • Cs content (FES) in the electrolyte solution: 0.05 wt.-%
In an Ar-filled glove box, 10 g of a 10 wt-% […] solution in ethylene carbonate/ethylmethyl carbonate (1:1, wt./wt.) was mixed with 0.47 g CsClO4 and magnetically stirred for 24 h. The suspension was then filter-clarified by membrane filtration ([…] PTFE). • Cs content (FES) in the electrolyte solution: 0.07 wt.-%

A short description of data set [4]: Additive salt solubility in lithium conducting salt electrolyte solutions.
A short description of data set [5]: Thermal stability, thermogravimetric experiment under argon flow. It is filed as physicochemical. On the procedure: In a 1-L round-bottom glass flask, 38.67 g boric acid and […] oxalic acid dihydrate were suspended in 121 g water. 102.9 g cesium carbonate was added in portions, with magnetic stirring (vigorous foaming due to CO2 generation). After the addition was complete, the white suspension was evaporated on a rotary evaporator, initially at 100° C. and 400 mbar. The colorless solid residue was then ground and subjected to final drying at 180° C. and 20 mbar for 3 h. • Yield: 197.3 g of colorless powder (97% of theoretical) • Cs content: 41.0% • […] ^11B=7.4 ppm (solution in DMSO-d6) • Thermal stability: 290° C. (onset of thermal decomposition in the thermogravimetric experiment under argon flow)

The mark [6] stands for this setting: supporting electrolyte LiBOB, 10% EC/EMC.
Where [7] appears, read: supporting electrolyte LiPF6, 10% EC/EMC.

SMILES strings stand for the structures. Where two headings read alike, the source gives them in different places.

The term Solubility denotes how much of the substance goes into solution per volume. A high value points to a readily soluble substance. In the case of `[Cs+].[O-][Cl+3]([O-])([O-])[O-]` [CsClO4, cesium perchlorate], in data set [1] (solvent PC), the “Solubility” value was found to be 70 mM and the “Solubility (Wt. %)” value was determined as 1.3 Wt. %. Further, the solubility in water in data set [2] (0° C.) was 0.8 g/100 mL. Besides, in data set [2] (25° C.), the solubility in water is listed as 1.97 g/100 mL. Also, in data set [3] (10 wt-% LiPF5 in EC/EMC (1:1, wt./wt.)), the “Cs content (FES) in the electrolyte solution” value is reported as 0.07 wt.-%. Further, in data set [4] (setting [6]), the “Additive Salt Solubility” value came to 5 mM and the “Additive Salt Solubility (wt.-%)” value amounted to 0.12 wt.-%. Also, in data set [4] (setting [7]), the “Additive Salt Solubility” value came to 40 mM and the “Additive Salt Solubility (wt.-%)” value is reported as 0.9 wt.-%.

`O=C1O[B-]2(OC1=O)OC(=O)C(=O)O2.[Rb+]` [RbBOB]: in data set [1], the “Solubility” value stood at 30 mM and the “Solubility (Wt. %)” value worked out at 0.64 Wt. %. Also, in data set [4] (setting [6]), the “Additive Salt Solubility” value is 1 mM and the “Additive Salt Solubility (wt.-%)” value came to 0.03 wt.-%. In addition, in data set [4] (setting [7]), the “Additive Salt Solubility” value was found to be 40 mM and the “Additive Salt Solubility (wt.-%)” value is recorded as 1.2 wt.-%.

Regarding `O=C1CC(=O)O[B-]2(O1)OC(=O)CC(=O)O2.[Cs+]` [CsBMB], in data set [1], the “Solubility” value is 50 mM and the “Solubility (Wt. %)” value came out at 1.8 Wt. %.

In the case of `O=C1O[B-]2(OC1=O)OC(=O)C(=O)O2.[Cs+]` [CsBOB, Cesium bis(oxalato)borate], the “Solubility” value in data set [1] (solvent EC/DMC (1:1)) is 70 mM; in data set [1] (solvent NMP), 270 mM; in data set [1] (solvent PC), 60 mM. Moreover, the results for the “Solubility (Wt. %)” value in data set [1] (solvent EC/DMC (1:1)), in data set [1] (solvent NMP) and in data set [1] (solvent PC) were 1.8 Wt. %, 7.9 Wt. % and 1.5 Wt. %, respectively. In data set [5], the “Thermal stability (onset of thermal decomposition)” value worked out at 290 °C. For the same compound, the “Cs content (FES) in the electrolyte solution” value in data set [3] (11 wt.-% LiBOB in EC/EMC (1:1, wt./wt.)) is reported as 0.05 wt.-%. Also, the entries for the “Additive Salt Solubility” value in data set [4] (setting [6]) and in data set [4] (setting [7]) were 4 mM and 40 mM, respectively. Besides, the results for the “Additive Salt Solubility (wt.-%)” value in data set [4] (setting [6]) and in data set [4] (setting [7]) were 0.12 wt.-% and 1.2 wt.-%, respectively.
